Data: paper PMC8399565, “Fluorescence Cross-Correlation Spectroscopy Yields True Affinity and Binding Kinetics of Plasmodium Lactate Transport Inhibitors” (Pharmaceuticals, 2021)
Entries after “also recorded” stand apart in the source; their conditions may differ. Like-named read-outs stand apart in the source and are kept apart here.

Columns and labels:
[1] = biological target: T1, PfFNT wt-GFP (Plasmodium falciparum, UniProt O77389); assay: FCCS equilibrium competition binding, PfFNT wildtype; details: for Ki: Cheng Prusoff; for complex formed in the absence of a competitor: 70 nM tracer
T1 construct: The DNA of full-length PfFNT from Plasmodium falciparum 3D7 was cloned as a C-terminal GFP fusion; expressed in transfected cells; intact cells for imaging, LMNG-solubilized membranes or lysates for FCCS
T1 sequence (O77389 whole entry, the tested form may be a part): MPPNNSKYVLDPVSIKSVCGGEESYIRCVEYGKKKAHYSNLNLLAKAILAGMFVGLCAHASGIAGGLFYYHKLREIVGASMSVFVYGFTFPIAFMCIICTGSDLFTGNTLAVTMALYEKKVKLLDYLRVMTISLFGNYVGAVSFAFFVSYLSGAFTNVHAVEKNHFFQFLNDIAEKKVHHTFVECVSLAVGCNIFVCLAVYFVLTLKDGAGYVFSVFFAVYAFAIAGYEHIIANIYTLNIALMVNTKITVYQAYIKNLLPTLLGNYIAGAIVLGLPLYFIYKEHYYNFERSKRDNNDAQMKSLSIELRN
Description: To analyze the binding properties of unlabeled inhibitors BH296 and […], we determined their inhibition constants (Ki) in equilibrium competition binding assays. For this, we first incubated membrane preparations comprising 10 nM of PfFNT wildtype with labeled BH296 at a concentration of 70 nM. The interaction was then competed with increasing amounts of unlabeled parental compounds BH296 and BH267.meta within a concentration range of 10 pM and 10 µM. The concentration of formed complex between PfFNT-GFP and BH296-DY647 relates to the values observed in the saturation binding assays. […] The corresponding Ki values were then calculated employing the Cheng Prusoff equation [17].
In view of the differences in complex formation of both tracers, we were also interested to see how both unlabeled compounds perform in competition experiments with BH267.meta-DY647 as a probe. The identical PfFNT-GFP membrane preparation as in the previous experiment was incubated with BH267.meta-DY647 at a concentration of 70 nM to allow for complex formation. Different amounts of competitors BH296 and BH267.meta were added to the interaction at concentrations ranging from 10 pM to 10 µM and incubated at room temperature for 1 h to allow the interaction to reach equilibrium. […] A significant amount of 20% of complex remained intact, independent of competitor concentration and incubation time. This finding is of interest because it mirrors the behavior of BH296-DY647 in saturation binding assays, where a subfraction of target appeared incapable of binding to the more space-occupying BH296 (Figure 4d, Table 2).
FCCS measurements were conducted in 384-well glass-bottom plates (cat. no PS96B-G175, SWISSCI, Switzerland) using an Insight plate reader (Evotec Technologies, Germany) fitted with a U-Apo300 40x water immersion lens, NA 1.15 (Olympus, Japan). The 488 nm laser line of an argon-ion laser and the light of a 633 nm helium–neon laser were used for excitation. Fluorescence fluctuations were recorded for 8 s with 12 repetitions and analyzed afterward using FCS+plus Analyze 1.1P (Evotec technologies, Version 1.2.5g). FCCS analysis was carried out as described previously. Briefly, for measuring the dissociation constant (KD), a titration series of 12 dilutions was prepared, where the concentration of the lysates obtained from HEK cells expressing GFP-fusions of PfFNT WT and G107S was kept constant, and the concentration of the labeled binding partner (BH296-DY647 and BH267.meta-DY647, respectively) was varied. The IC50 values were calculated by plotting the concentration from the dual labeled complex against the concentration of the competitor titrated over a concentration range from 10 µM to 10 pM. Samples were incubated for 1 h at room temperature prior to FCCS measurements to allow the formation of drug target complexes. From the resulting IC50 values, the Ki values were obtained by application of the Cheng Prusoff equation [17]. To assess the rate constants, time-resolved measurements were carried out at different concentrations of the labeled ligand. […] All KD and IC50 values, as well as kinetic parameters, were determined from three independently repeated experiments. The figures show one representative measurement; however, the calculated KD, Ki, kon and koff values are presented as an average of the three measurements ± SD. Error bars denote ± SEM.

[2] = biological target: T2, PfFNT G107S-GFP (Plasmodium falciparum, UniProt O77389, G107S); assay: Live cell confocal imaging, co-localization with PfFNT G107S-GFP in HEK293 cells; format: cell-based; details: for competition of BH267.meta-DY647 membrane localization by unlabeled compound: 100 µM unlabeled compound; for co-localization / membrane localization: 50 nM probe, 0.05% Triton X-100
T2 construct: The DNA of full-length PfFNT from Plasmodium falciparum 3D7 was cloned as a C-terminal GFP fusion; expressed in transfected cells; intact cells for imaging, LMNG-solubilized membranes for FCCS
T2 sequence (O77389 whole entry G107S, the tested form may be a part): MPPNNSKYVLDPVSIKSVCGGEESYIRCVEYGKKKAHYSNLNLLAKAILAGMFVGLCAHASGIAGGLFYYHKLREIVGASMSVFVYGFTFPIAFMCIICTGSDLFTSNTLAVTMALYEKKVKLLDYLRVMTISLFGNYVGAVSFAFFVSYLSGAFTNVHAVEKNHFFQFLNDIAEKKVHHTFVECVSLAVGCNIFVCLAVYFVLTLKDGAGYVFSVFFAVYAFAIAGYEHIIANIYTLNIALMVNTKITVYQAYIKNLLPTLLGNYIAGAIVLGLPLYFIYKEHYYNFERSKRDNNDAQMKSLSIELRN
Excerpt: A PfFNT G107S mutant generated by sublethal dosing of BH296 in vitro parasite cultures has gained attention as it confers resistance against BH296, but the introduction of a scaffold nitrogen atom (BH267.meta; Figure 1) restored the effectiveness of the inhibitor [11]. The G107S mutation site is located at the cytoplasmic entrance of PfFNT and narrows the transport path precluding the binding of BH296 via sterical hinderance of the phenyl moiety of the compound. Exchange of the carbon atom in the meta-position of the aromatic ring of BH296 for a nitrogen atom introduced a hydrogen bond acceptor site for the serine hydroxyl of the resistance mutation and restored binding to the mutant PfFNT G107S. We analyzed the interaction of BH267.meta by cellular imaging. For this, we generated labeled BH267.meta-DY647 (Figure 1), expressed PfFNT G107S in HEK cells, and incubated the cells with BH296-DY647 or BH 267.meta-DY647 after treatment with 0.05% Triton X-100.
Whether these differences in signal intensity can be attributed to different affinities, to expression levels of the target protein, or to the cellular localization cannot be concluded from imaging-based experiments but requires biophysical analytical methods. However, the observation confirms previous findings that show the activity of BH267.meta on PfFNT G107S.
The confocal laser scanning microscopy was performed on an LSM 510 confocal microscope connected to an Axiovert 200M equipped with a C-Apochromat 40×/1.2 W water immersion objective (Carl Zeiss, Germany). The red fluorophore (Dy-647) was excited using a 633 nm helium–neon laser, whereas the green fluorophore (GFP) was excited using a 488 nm argon-ion laser.

Row | SMILES | competition of BH267.meta-DY647 membrane localization by unlabeled compound [2] | co-localization / membrane localization [2] | complex formed in the absence of a competitor ([1]; 10 nM PfFNT-GFP) | also measured
1 | O=C(/C=C(\O)C(F)(F)C(F)(F)F)c1cccnc1 [BH267.meta] | prevents membrane localization; also recorded: could be competed | – | – | Ki ([1]; fluorescent probe BH267.meta-DY647 70 nM, 1 h room temperature, read-out: Ki Competitor (converted)): 56 nM; Ki ([1]; fluorescent probe BH296-DY647 70 nM, 10 nM PfFNT-GFP, read-out: Ki Competitor (converted)): 66 ± 6 nM
2 | O=C(C=C(O)C(F)(F)C(F)(F)F)c1ccc(O)cc1 [BH296, 4,4,5,5,5-pentafluoro-3-hydroxy-1-(4-hydroxyphenyl)pent-2-en-1-one] | cannot compete | did not localize to membranes | – | Ki ([1]; Ki Competitor, fluorescent probe BH267.meta-DY647 70 nM, 1 h room temperature): 47 nM; Ki ([1]; Ki Competitor, fluorescent probe BH296-DY647 70 nM, 10 nM PfFNT-GFP): 48 ± 2 nM; complex remaining intact after competition ([1]; tracer BH267.meta-DY647, independent of competitor concentration and incubation time): 20%
3 | CCN1/C(=C/C=C/C=C/C2=[N+](CC)c3ccc(S(=O)(=O)O)cc3C2(C)CCCC(=O)NCCOCCOCCOCCOCCC(=O)NCCCOc2ccc(C(=O)/C=C(\O)C(F)(F)C(F)(F)F)cn2)C(C)(C)c2cc(S(=O)(=O)[O-])ccc21 (centres unmarked) [BH267.meta-DY647] | – | co-localizes; also recorded: clear membrane stain | 3 nM | –
4 | CCN1/C(=C/C=C/C=C/C2=[N+](CC)c3ccc(S(=O)(=O)O)cc3C2(C)CCCC(=O)NCCOCCOCCOCCOCCC(=O)NCCCOc2ccc(C(=O)/C=C(\O)C(F)(F)C(F)(F)F)cc2)C(C)(C)c2cc(S(=O)(=O)[O-])ccc21 (centres unmarked) [BH296-DY647] | – | – | 1.5 nM | –
